Data on 22 compounds can be found in patent US4798841A, “Tetrahydropyridine oxime cholinergic agents and method of treatment” (Warner-Lambert Company, priority 1987, dated 1989).

Assay [1] deals with muscarinic binding site. Nature of the assay: RQNB screening assay: inhibition of radiolabeled quinuclidinyl benzilate (muscarinic antagonist) binding in rat cerebral cortex tissue. The conditions noted are these: for % Inhib. RQNB: @ 10^-6 M; for pIC50: rat cerebral cortex, radiolabeled quinuclidinyl benzilate.
Assay [2] concerns muscarinic binding site. The experiment in a line: RCMD screening assay: inhibition of radiolabeled cis-methyldioxolane (muscarinic agonist) binding in rat cerebral cortex tissue. The conditions noted are these: for % Inhib. RCMD: @ 10^-7 M; for pIC50: rat cerebral cortex, radiolabeled cis-methyldioxolane. The protocol: Similarly, in the RCMD screening assay, described more fully by T. W. Vickeroy et al., J. Pharmacol. and Exp. Ther., 229 (3): 747 (1984), rat cerebral cortex tissue was treated with radiolabeled cis-methyldioxolane, a known muscarinic binding site agonist. The percent inhibition at given concentrations or concentrations of test compounds required to inhibit 50% of the binding of this muscarinic agonist were then determined.

Another assay concerns laboratory rats. Nature of the assay: Scopolamine induced swimming test (SIS). The conditions noted are these: for minimal effective dose: rat, read-out: Minimal Effective Dose for Reversal of Scopolamine-Induced Swimming Hyperactivity; for Reversal of scopolamine-induced swimming hyperactivity: result in words. The format is in vivo, rat. The method, then: In the scopolamine induced swimming test (SIS), the ability of representative compounds of the present invention to reverse the hyperactive swimming behavior of laboratory rats given scopolamine was assessed. In this test, untreated rats will generally swim between 20 to 30 meters during a five minute test period. […] The effect of scopolamine is centrally mediated; the ability of a test compound to reverse the hyperactive swimming behavior induced by scopolamine is thus a measure of the central cholinergic activity of the compound.

The test system of another assay is male Swiss-Webster mice. The experiment in a line: Antiwrithing (AW) test, acetic acid induced writhing. The settings on record: ip; intraperitoneal dosing; mouse; acetic acid 0.6%; read-out: ED50 (dose necessary to suppress writhing by 50% relative to vehicle controls). The assay is classed as in vivo. The protocol:
The antiwrithing (AW) test provides preliminary assessment of compounds with potential analgesic activity. The test is performed with male Swiss-Webster mice. Compounds are administered in aqueous 0.2% methylcellulose or other appropriate vehicles in volumes of 10 ml/kg. Dosages represent active moiety.
Acetic acid (0.6%, 10 ml/kg) is injected intraperitoneally after administration of the compound. writhing movements are counted for five minutes starting seven minutes after the acetic acid injection. Data are expressed as ED50 values, where the ED50 is the dose necessary to suppress writhing by 50% relative to vehicle controls. ED50 values are calculated by nonlinear regression analysis.

Assay [3] has as its system patients clinically diagnosed as having presenile primary degenerative dementia. The conditions noted are these: double blind study; Christie et al. 1981; cited from earlier work.
Assay [4] deals with aged humans and non-human primates with decreased cognition. The conditions noted are these: result in words; cited from earlier work.
The conditions of assay [5]: Davis et al. 1983; cited from earlier work.

The structures appear in SMILES notation. pIC50: −log10 of the molar value. Read-outs that look alike come from different tables or passages of the source.

Regarding `CC(=NO)C1=CCCNC1` [Hydrogen 3-Methyl, 1-(1,2,5,6-Tetrahydro-3-pyridinyl)ethanone oxime], the “% Inhib. RQNB” value in the assay on muscarinic binding site [1] worked out at 24%. Further, in the assay on muscarinic binding site [2], the “% Inhib. RCMD” value is 85%. For the same compound, the minimal effective dose in the assay with laboratory rats (sc, Subcutaneous) turned out to be 3.2 mg/kg.
Regarding `CN1CCC=C(C(COCc2ccccc2)=NO)C1` [Methyl 3-(CH2 OCH2 Ph)], in the assay with muscarinic binding site [1], the “% Inhib. RQNB” value turned out to be 38%. In addition, the “% Inhib. RCMD” value in the assay with muscarinic binding site [2] amounted to 30%.
For the compound `CC(=NO)C1=CCCN(C)C1` [Methyl 3-Methyl, 1-(1,2,5,6-Tetrahydro-1-methyl-3-pyridinyl)-ethanone oxime], the pIC50 was 5.33 on muscarinic binding site [1] and 7.72 at muscarinic binding site [2]. In addition, the minimal effective dose in the assay on laboratory rats (sc, Subcutaneous) turned out to be 3.2 mg/kg. Further, the ED50 in the assay with male Swiss-Webster mice is 1.1 mg/kg.
Take `CC(C)/C(=N\O)C1=CCCN(C)C1` [Methyl 3-(1-Methylethyl) (anti), 2-Methyl-1-(1,2,5,6-tetrahydro-1-methyl-3-pyridinyl)-1-propanone oxime]: in the assay on muscarinic binding site [1], the “% Inhib. RQNB” value turned out to be 10%. The “% Inhib. RCMD” value in the assay with muscarinic binding site [2] is 10%.
Consider `CN1CCC=C(C=NO)C1` [Methyl Hydrogen, 1,2,5,6-Tetrahydro-1-methyl-3-pyridinecarboxaldehyde oxime], for which the “% Inhib. RQNB” value in the assay with muscarinic binding site [1] stood at 8%. Further, the “% Inhib. RCMD” value in the assay on muscarinic binding site [2] came out at 22%. In addition, the minimal effective dose in the assay on laboratory rats (sc, Subcutaneous) is 32 mg/kg.
For `CCN1CCC=C(C(C)=NO)C1` [Ethyl 3-Methyl, 1-(1-Ethyl-1,2,5,6-tetrahydro-3-pyridinyl)ethanone oxime], the “% Inhib. RQNB” value with muscarinic binding site [1] came to 23%. Besides, the “% Inhib. RCMD” value in the assay with muscarinic binding site [2] is 21%.
Take `CN1CCC=C(C(=NO)c2ccccc2)C1` [Methyl 3-Phenyl, Phenyl(1,2,5,6-tetrahydro-1-methyl-3-pyridinyl)methanone oxime]: the “% Inhib. RQNB” value in the assay with muscarinic binding site [1] stood at 51%. Besides, the “% Inhib. RCMD” value with muscarinic binding site [2] was 39%.
As for `CN1[C@@H]2C[C@@H](OC(=O)[C@H](CO)c3ccccc3)C[C@H]1[C@@H]1O[C@@H]12` [scopolamine, reference compound], the “Increase of swimming distance above base-line” value in the assay on laboratory rats (scopolamine 0.1 mg/kg, five minute test period) is given as 75-125%.
For `CCCN1CCC=C(C(CCc2ccccc2)=NO)C1` [n-Propyl 3-(CH2 CH2Ph), 3-Phenyl-1-(1,2,5,6-tetrahydro-1-propyl-3-pyridinyl)-1-propanone oxime], the minimal effective dose in the assay on laboratory rats (Oral) was found to be 3.2 mg/kg.
Take `CCCN1CCC=C(C(CCc2ccccc2)=NO)C1` [n-Propyl 3-Phenylmethyl]: the “% Inhib. RQNB” value with muscarinic binding site [1] came out at 63%. Further, the “% Inhib. RCMD” value in the assay on muscarinic binding site [2] is listed as 3%.
On to `COC(=O)C1=CCCN(C)C1` [arecoline, methyl ester of 1,2,5,6-tetra-hydro-1-methyl-3-pyridinecarboxylic acid, reference compound], for which the “Reversal of scopolamine-induced swimming hyperactivity” value in the assay with laboratory rats is given as “can be reversed”. Besides, in assay [3], the “Test of picture recognition” value is recorded as “Significant improvement”.
Turning to `C=CCCC(=NO)C1=CCCN(C)C1` [Methyl 3-(CH2 CH2 CHCH2), 1-(1,2,5,6-Tetrahydro-1-methyl-3-pyridinyl)-4-penten-1-one oxime], the pIC50 was 6.22 on muscarinic binding site [1] and 7.40 on muscarinic binding site [2]. In the assay on laboratory rats (sc, Subcutaneous), the minimal effective dose worked out at 32 mg/kg.
In the case of `CCC(=NO)C1=CCCN(C)C1` [Methyl 3-Ethyl, 1-(1,2,5,6-Tetrahydro-1-methyl-3-pyridinyl)-1-propanone oxime], the negative logarithm of the IC50 (pIC50) on muscarinic binding site [1] was 5.70; on muscarinic binding site [2], 7.30. For the same compound, the minimal effective dose in the assay with laboratory rats (sc, Subcutaneous) amounted to 32 mg/kg.
In the case of `CC(C)/C(=N/O)C1=CCCN(C)C1` [Methyl 3-(1-Methylethyl) (syn), 2-Methyl-1-(1,2,5,6-tetrahydro-1-methyl-3-pyridinyl)-1-propanone oxime], the “% Inhib. RQNB” value with muscarinic binding site [1] is listed as 35%. Also, in the assay with muscarinic binding site [2], the “% Inhib. RCMD” value is recorded as 43%.
Consider `C#CCCC(=NO)C1=CCCN(C)C1` [Methyl 3-(CH2 CH2 C CH)], for which the results for the negative logarithm of the IC50 (pIC50) at muscarinic binding site [1] and on muscarinic binding site [2] were 6.00 and 8.15, respectively.
On to `CN1CCC=C(C(CCc2ccccc2)=NO)C1` [Methyl 3-Phenylmethyl], for which, in the assay with muscarinic binding site [1], the “% Inhib. RQNB” value is on record as 86%. For the same compound, the “% Inhib. RCMD” value in the assay on muscarinic binding site [2] is given as 66%.
As to `COCCCC(=NO)C1=CCCN(C)C1` [Methyl 3-(CH2 CH2 CH2 OCH3), 4-Methoxy-1-(1,2,5,6-tetrahydro-1-methyl-3-pyridinyl)-1-butanone Oxime], the pIC50 is 5.60 on muscarinic binding site [1] and 7.52 at muscarinic binding site [2]. The minimal effective dose in the assay on laboratory rats (sc, Subcutaneous) came out at 32 mg/kg.
Regarding `CNC(=O)Oc1ccc2c(c1)[C@]1(C)CCN(C)[C@@H]1N2C` [physostigmine, reference compound], the “Reversal of scopolamine-induced swimming hyperactivity” value with laboratory rats is listed as “can be reversed”. In assay [4], the “Memory in aged humans and non-human primates with decreased cognition” value is “improved memory”.
Turning to `CCCCC(=NO)C1=CCCN(C)C1` [Methyl 3-n-Butyl, 1-(1,2,5,6-Tetrahydro-1-methyl-3-pyridinyl)-1-pentanone oxime], the results for the pIC50 at muscarinic binding site [1] and at muscarinic binding site [2] were 6.52 and 7.70, respectively. Moreover, in the assay on laboratory rats (sc, Subcutaneous), the minimal effective dose stood at 32 mg/kg.
Take `CC(=NO)C1=CCN(C)CC1` [Methyl 4-Methyl]: the pIC50 was 5.00 on muscarinic binding site [1] and 6.31 on muscarinic binding site [2]. Also, the minimal effective dose in the assay on laboratory rats (sc, Subcutaneous) worked out at 3.2 mg/kg.
As to `Nc1ccncc1N` [3,4-diaminopyridine], in assay [5], the Age-related cognitive deficits result is “ameliorate age-related cognitive deficits”.
For `CN1CCC=C(C(CCc2ccccc2)=NO)C1` [Methyl 3-(CH2 CH2Ph), 3-Phenyl-1-(1,2,5,6-tetrahydro-1-methyl-3-pyridinyl)-1-propanone oxime], the minimal effective dose with laboratory rats (sc, Subcutaneous) was determined as 32 mg/kg.
